From US6350778B1, “Cinnamoylaminoalkyl-substituted benzenesulfonamide derivatives, processes for their preparation, their use, and pharmaceutical preparations comprising them” (Aventis Pharma Deutschland GmbH, priority 1999, dated 2002) come the findings set out here.

Values joined by “and” are separate entries in the source; they are usually repeats but may differ in a detail not shown here. Equal values may be shown once.

Usually melting point stands for the temperature of the solid-liquid transition.

For data set [1], the system named is papillary muscle of the guinea pig. Description: Action potential duration (APD90) in the papillary muscle of the guinea pig, shortened by rilmakalim (HOE 234). The format is cell-based. To be noted: starting values 185-193 ms; for APD90 + HOE 234, 30 min, then + test substance, 60 min: test substance 2 μmol/l added after 30 min rilmakalim (HOE 234) 1 μg/ml, recorded after a further 60 min. The text has this:
Action potential duration in the papillary muscle of the guinea pig
ATP deficiency states, such as are observed during ischemia in the cardiac muscle cell, lead to a shortening of the action potential duration. They are regarded as one of the causes of so-called reentry arrhythmias, which can cause sudden cardiac death. The opening of ATP-sensitive potassium channels by the lowering of the ATP level is regarded as causing this (ATP=adenosine triphosphate). For the measurement of the action potential in the papillary muscle of the guinea pig a standard microelectrode technique was employed.
Guinea pigs of both sexes were killed by a blow to the head, the hearts were removed, and the papillary muscles were separated out and suspended in an organ bath. The organ bath was irrigated with Ringer's solution (136 mmol/l of NaCl, 3.3 mmol/l of KCl, 2.5 mmol/l of CaCl2, 1.2 mmol/l of KH2PO4, 1.1 mmol/l of MgSO4, 5.0 mmol/l of glucose, and 10.0 mmol/l of N-(2-hydroxyethyl)piperazine-N′-(2-ethanesulfonic acid) (HEPES), pH adjusted to 7.4 with NaOH) and aerated with 100% oxygen at a temperature of 37° C. The muscle was stimulated by means of an electrode using square-wave impulses of 1 V and 1 ms duration and a frequency of 1 Hz. The action potential was derived and recorded by means of a glass microelectrode inserted intracellularly, which was filled with 3 mol/l of KCl solution. The substance to be tested was added to the Ringer's solution in a concentration of 2 μmol/l. The action potential was amplified using an amplifier from Hugo Sachs (March-Hugstetten, Germany) and stored and analyzed by means of a computer. The duration of the action potential was determined at a degree of repolarization of 90% (APD90). The action potential shortening was produced by addition of a solution of the potassium channel opener Rilmakalim (HOE 234) (W. Linz et al., Arzneimittelforschung/Drug Research, 42 (II) (1992) 1180-1185) (rilmakalim concentration 1 μg/ml). 30 minutes after the administration of rilmakalim, the action potential duration was recorded. The test substance was then added and the action potential duration, which was prolonged again, was recorded after a further 60 minutes. The test substances were added to the bath solution as stock solutions in propanediol.
The following APD90 values (in milliseconds) were recorded.

For data set [2], the system named is chloroform-induced ventricular fibrillation in the mouse. Description: Chloroform-induced ventricular fibrillation in the mouse (action in the case of vagal dysfunction). The format is in vivo. The following applies: for Fibrillation ratio (in %): 3 mg/kg i.p., chloroform anesthesia 30 min later, untreated control 100%. The text has this: Chloroform-induced ventricular fibrillation in the mouse (action in the case of vagal dysfunction) A hypofunction of the vagal nervous system leads to a hyperfunction of the sympathetic nervous system. Damages to health which result from an imbalance of the autonomic nervous system if the dysfunction relates to the heart, include weakening of the myocardial contractile force and fatal cardiac arrhythmias such as ventricular fibrillation. The action of the test substances was investigated in the model of chloroform-induced ventricular fibrillation in the mouse (see J. W. Lawson, “Antiarrhythmic activity of some isoquinoline derivatives determined by a rapid screening procedure in the mouse,” J. Pharmacol. Exp. Ther. 160 (1968) 22). […] As soon as respiratory arrest had occurred under deep anesthesia (toxic anesthesia stage), the thorax of the animal was opened with a pair of scissors and the heartbeat was visually inspected. It can be detected at a glance here whether the heart is beating, fibrillating, or has stopped. The respiratory arrest induced by chloroform leads, via absolute anoxia (oxygen deficiency) in combination with a direct stimulating action of chloroform on the sympathetic nervous system, to a strong stimulation of the sympathetic nervous system which in turn leads, in combination with the energy deficiency produced in the heart by oxygen deficiency, to the fatal arrhythmia, ventricular fibrillation. […] The percentage proportion of the mice having ventricular fibrillation in the individual test groups (with n animals) is indicated as the fibrillation ratio. The following fibrillation ratios were determined. […] The experiment is carried out here as described above. […] After a further 15 min, the animals were anesthetized with chloroform and the fibrillation ratio was determined.

Setting [3] is: atropine 1 mg/kg i.v., chloroform 15 min after administration, n = 10.
[4] abbreviates: Example 8 10 mg/kg i.p., chloroform 30 min after administration, n = 20.

Take `CNC(=S)NS(=O)(=O)c1cc(CCNC(=O)/C=C/c2ccc(OC)cc2OC)ccc1OC` [Example 1, 1-(5-(2-(2,4-Dimethoxycinnamoylamino)ethyl)-2-methoxyphenysulfonyl)-3-methylthiourea]: the “APD90 + HOE 234, 30 min, then + test substance, 60 min” value (from here on “APD90 + HOE 234, 30 min … 60 min”) in data set [1] turned out to be 177 milliseconds. The “Fibrillation ratio (in %)” value in data set [2] (n = 10) is given as 60%. For the compound `CNC(=O)NS(=O)(=O)c1cc(CCNC(=O)/C=C/c2ccccc2)ccc1OCCOC` [Example 19, 1-(5-(2-(Cinnamoylamino)ethyl)-2-(2-methoxyethoxy)phenylsulfonyl)-3-methylurea], the melting point is 65 °C. Take `CCNC(=O)NS(=O)(=O)c1cc(CCNC(=O)/C=C/c2ccc(OC)cc2OC)ccc1OC` [Example 4, 1-(5-(2-(2,4-Dimethoxycinnamoylamino)ethyl)-2-methoxyphenylsulfonyl)-3-ethylurea]: the melting point amounted to 96 °C.

As for `CNC(=S)NS(=O)(=O)c1cc(CCNC(=O)/C=C/c2ccccc2)ccc1OC` [Example 12, 1-(5-(2-(Cinnamoylamino)ethyl)-2-methoxyphenylsulfonyl)-3-methylthiourea], the “Fibrillation ratio (in %)” value in data set [2] (n = 10) is 63%. For the compound `CNC(=S)NS(=O)(=O)c1cc(CCNC(=O)/C=C/c2ccc(OC)cc2OC)ccc1OCCOC` [Example 7, 1-(5-(2-(2,4-Dimethoxycinnamoylamino)ethyl)-2-(2-methoxyethoxy)phenylsulfonyl)-3-methylthiourea], the “APD90 + HOE 234, 30 min … 60 min” value in data set [1] is reported as 175 milliseconds. `CN1[C@@H]2CC[C@H]1C[C@@H](OC(=O)C(CO)c1ccccc1)C2` (some centres unmarked) [Atropine, atropine, reference compound]: in data set [2] (setting [3]), the Fibrillation ratio was 100%, the “Number of animals with fibrillation” value is listed as 10 and the “Number of animals with regular heart action” value was determined as 0. Take `CNC(=O)NS(=O)(=O)c1cc(CCNC(=O)/C=C/c2ccc(OC)cc2OC)ccc1OCCOC` [Example 8, 1-(5-(2-(2,4-Dimethoxycinnamoylamino)ethyl)-2-(2-methoxyethoxy)phenysulfonyl)-3-methylurea]: the “APD90 + HOE 234, 30 min … 60 min” value in data set [1] was found to be 92 milliseconds. Further, the “Fibrillation ratio (in %)” value in data set [2] (n = 10) worked out at 60%. Besides, in data set [2] (setting [4]), the “Number of animals with fibrillation” value is given as 9 and the “Number of animals with regular heart action” value is reported as 11. The Fibrillation ratio in data set [2] (Example 8 10 mg/kg i.p., chloroform 30 min after administration, n = 20, p < 0.0001 vs atropine, p = 0.024 vs combination) is 45% ^1), 2).

For the compound `CNC(=S)NS(=O)(=O)c1cc(CCNC(=O)/C=C/c2cc(Cl)ccc2OC)ccc1OC` [Example 21, 1-(5-(2-(5-Chloro-2-methoxycinnamoylamino)ethyl)-2-methoxyphenylsulfonyl)-3-methylthiourea], the melting point fell in the range of 188 to 190 °C. In the case of `CC1(C)Oc2ccc(S(=O)(=O)c3ccccc3)cc2[C@@H](N2CCCC2=O)[C@@H]1O` [HOE 234, Rilmakalim, reference compound], in data set [1] (potassium channel opener rilmakalim (HOE 234) 1 μg/ml alone, 30 min, before test substance, 37° C., 1 Hz), the “APD90 + HOE 234, 30 min” value was 24 milliseconds and 34 milliseconds. In the case of `CNC(=O)NS(=O)(=O)c1cc(CCNC(=O)/C=C/c2ccc(OC)cc2OC)ccc1OC` [Example 2, 1-(5-(2-(2 ,4-Dimethoxycinnamoylamino)ethyl)-2-methoxyphenylsulfonyl)-3-methylurea], the melting point amounted to 210 °C.

`CNC(=S)NS(=O)(=O)c1cc(CCNC(=O)/C=C/c2ccc(Cl)cc2Cl)ccc1OCCOC` [Example 24] showed a melting point of 76 to 78 °C. Take `CNC(=S)NS(=O)(=O)c1cc(CCNC(=O)/C=C/c2ccc(C)cc2C)ccc1OCCOC` [Example 26, 1-(5-(2-(2,4-Dimethylcinnamoylamino)ethyl)-2-(2-methoxyethoxy)phenylsufonyl)-3-methylthiourea]: the melting point was 116 °C.

As to `CNC(=S)NS(=O)(=O)c1cc(CCNC(=O)/C=C/c2ccccc2)ccc1OCCOC` [Example 17, 1-(5-(2-(Cinnamoylamino)ethyl)-2-(2-methoxyethoxy)phenylsulfonyl)-3-methylthiourea], the melting point was 150 °C. In turn, `C=CCOc1ccc(CCNC(=O)/C=C/c2ccc(OC)cc2OC)cc1S(=O)(=O)NC(=S)NC` [Example 23, 1-(2-Allyloxy-5-(2-(2,4-dimethoxycinnamoylamino)ethyl)phenylsulfonyl)-3-methylthiourea] yielded a melting point of 171 to 175 °C.

Turning to `CCNC(=S)NS(=O)(=O)c1cc(CCNC(=O)/C=C/c2ccc(OC)cc2OC)ccc1OCCOC` [Example 9, 1-(5-(2-(2,4-Dimethoxycinnamoylamino)ethyl)-2-(2-methoxyethoxy)phenylsulfonyl)-3-ethylthiourea], the “Fibrillation ratio (in %)” value in data set [2] (n = 10) is given as 63%. As to `CNC(=S)NS(=O)(=O)c1cc(CCNC(=O)/C=C/c2cc(C(C)(C)C)ccc2OC)ccc1OCCOC` [Example 25, 1-(5-(2-(5-tert-Butyl-2-methoxycinnamoylamino)ethyl)-2-(2-methoxyethoxy)phenyl-sulfonyl)-3-methylthiourea], the melting point stood at 73 °C. On the same count and under the same terms, to `CNC(=O)NS(=O)(=O)c1cc(CCNC(=O)/C=C/c2ccc(C)cc2C)ccc1OC` [Example 6, 1-(5-(2-(2,4-Dimethylcinnamoylamino)ethyl)-2-methoxyphenylsulfonyl)-3-methylurea] belongs 227 to 229 °C; to `CCNC(=S)NS(=O)(=O)c1cc(CCNC(=O)/C=C/c2ccc(OC)cc2OC)ccc1OC` [Example 3, 1-(5-(2-(2,4-Dimethoxycinnamoylamino)ethyl)-2-methoxyphenylsulfonyl)-3-ethylthiourea], 90 °C. For `CNC(=S)NS(=O)(=O)c1cc(CCNC(=O)/C=C/c2ccc(C)cc2C)ccc1OC` [Example 5, 1-(5-(2-(2,4-Dimethylcinnamoylamino)ethyl)-2-methoxyphenylsulfonyl)-3-methylthiourea], the “Fibrillation ratio (in %)” value in data set [2] (n = 10) worked out at 70%.
